Test system: ER-alpha MCF7
Assay: ER-alpha MCF7 HCS EC50; stated as measured by in vitro cell proliferation assays of Examples 902 and 903
Format: cell-based
Settings: Homo sapiens, MCF7, MCF7 cells; Table 2
Outline: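 MCF7 cells seeded 1000-2000 cells/well for 16 h, then treated with nine-point 1:2 DMSO dilution series in quadruplicate at 37 °C, 5% CO2 for 4 days. Viable cells quantified by CellTiter-Glo ATP luminescence; EC50 calculated. Controls: fulvestrant at final 100 nM, DMSO 0.2% v/v.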

| SMILES | EC50 [nM] |
| --- | --- |
| C[C@@H]1Cc2c([nH]c3ccccc23)[C@@H](c2c(F)cc(OC3CN(CCCF)C3)cc2F)N1S(C)(=O)=O [Example 202, (1R,3R)-1-[2,6-difluoro-4-[1-(3-fluoropropyl)azetidin-3-yl]oxy-phenyl]-3-methyl-2-methylsulfonyl-1,3,4,9-tetrahydropyrido[3,4-b]indole] | 0.1 |
| C[C@@H]1Cc2c([nH]c3ccccc23)[C@@H](c2c(F)cc(OC[C@H](C)N3CC(C(F)F)C3)cc2F)N1CC(C)(C)F [Example 204, (1R,3R)-1-[4-[(2S)-2-[3-(difluoromethyl)azetidin-1-yl]propoxy]-2,6-difluoro-phenyl]-2-(2-fluoro-2-methyl-propyl)-3-methyl-1,3,4,9-tetrahydropyrido[3,4-b]indole] | 0.371 |
| C[C@@H]1Cc2c([nH]c3ccccc23)[C@@H](c2c(F)cc(OCCN3CC(F)(CF)C3)cc2F)N1CC(C)(C)F [Example 205, (1R,3R)-1-[2,6-difluoro-4-[2-[3-fluoro-3-(fluoromethyl)azetidin-1-yl]ethoxy]phenyl]-2-(2-fluoro-2-methyl-propyl)-3-methyl-1,3,4,9-tetrahydropyrido[3,4-b]indole] | 0.375 |
| C[C@@H]1Cc2c([nH]c3ccccc23)[C@@H](c2c(F)cc(OCCN3CC(CF)C3)cc2F)N1C(=O)CCC#N [Example 206, 4-[(1R,3R)-1-[2,6-difluoro-4-[2-[3-(fluoromethyl)azetidin-1-yl]ethoxy]phenyl]-3-methyl-1,3,4,9-tetrahydropyrido[3,4-b]indol-2-yl]-4-oxo-butanenitrile] | 31 |
| C[C@@H]1Cc2c([nH]c3ccccc23)[C@@H](c2c(F)cc(OCCN3CC(CF)C3)cc2F)N1CC1CCCCC1 [Example 207, (1R,3R)-2-(cyclohexylmethyl)-1-[2,6-difluoro-4-[2-[3-(fluoromethyl)azetidin-1-yl]ethoxy]phenyl]-3-methyl-1,3,4,9-tetrahydropyrido[3,4-b]indole] | 13 |
| C[C@@H]1Cc2c([nH]c3ccccc23)[C@@H](c2c(F)cc(OC3CN(CCC4COC4)C3)cc2F)N1CC(C)(C)F [Example 208, (1R,3R)-1-[2,6-difluoro-4-[1-[2-(oxetan-3-yl)ethyl]azetidin-3-yl]oxy-phenyl]-2-(2-fluoro-2-methyl-propyl)-3-methyl-1,3,4,9-tetrahydropyrido[3,4-b]indole] | 0.066 |
| C[C@@H]1Cc2c([nH]c3ccccc23)[C@@H](c2c(F)cc(OC3CN(CC4CCCCC4)C3)cc2F)N1CC(C)(C)F [Example 209, (1R,3R)-1-[4-[1-(cyclohexylmethyl)azetidin-3-yl]oxy-2,6-difluoro-phenyl]-2-(2-fluoro-2-methyl-propyl)-3-methyl-1,3,4,9-tetrahydropyrido[3,4-b]indole] | 8 |
| C[C@@H]1Cc2c([nH]c3ccccc23)[C@@H](c2ccc(OCCN3CC(CF)C3)cc2Cl)N1CC(C)(C)F [Example 210, (1R,3R)-1-[2-chloro-4-[2-[3-(fluoromethyl)azetidin-1-yl]ethoxy]phenyl]-2-(2-fluoro-2-methyl-propyl)-3-methyl-1,3,4,9-tetrahydropyrido[3,4-b]indole] | 0.1 |
| C[C@@H]1Cc2c([nH]c3ccccc23)[C@@H](c2ccc(OC3CN(CCCF)C3)cc2Cl)N1CC(C)(C)F [Example 211, (1R,3R)-1-[2-chloro-4-[1-(3-fluoropropyl)azetidin-3-yl]oxy-phenyl]-2-(2-fluoro-2-methyl-propyl)-3-methyl-1,3,4,9-tetrahydropyrido[3,4-b]indole] | 0.2 |
| CC(O)CC(=O)N1[C@H](c2c(F)cc(OCCN3CC(CF)C3)cc2F)c2[nH]c3ccccc3c2C[C@H]1C (stereo partly drawn) [Example 212, 1-((1R,3R)-1-(2,6-difluoro-4-(2-(3-(fluoromethyl)azetidin-1-yl)ethoxy)phenyl)-3-methyl-3,4-dihydro-1H-pyrido[3,4-b]indol-2(9H)-yl)-3-hydroxybutan-1-one] | 1 |
